Experimental data published in patent publication US20180161314A1, “Methods for Treating Hyperuricemia and Related Diseases” (Ardea Biosciences, Inc., priority 2010, published 2018).
Read-outs that look alike come from different tables or passages of the source.

Test system: gout patients with hyperuricemia
Assay type: in vivo
Settings: for Mean absolute sUA reduction / Mean sUA % change / Mean sUA level: ± SE; for % Response rate for sUA falling below 4 mg/dL / % Response rate for sUA falling below 5 mg/dL / % Response rate for sUA falling below 6 mg/dL: allopurinol 300 mg
Method: Study Objectives • To measure the effect of drug 1, alone and in combination with allopurinol, on serum urate concentration. • To evaluate the safety and tolerability of drug 1 in combination with allopurinol.
The study is open-label in gout patients with hyperuricemia, involving 2 panels of ˜10-12 patients per panel. The panels may be enrolled simultaneously.
Panel 1 receives a once-daily dose of allopurinol 300 mg alone for 7 days and for an additional 7 days in combination with a once-daily dose of drug 1 400 mg. Patients then receive 7 days of a once-daily dose of drug 1 400 mg alone. Panel 2 follows the same regimen as panel 1, at doses of allopurinol 300 mg and drug 1 600 mg.
• Day −10 to Day 28: colchicine prophylaxis; or • Day −7 to Day 28: colchicine prophylaxis (for patients not washing out from ULT) • Days 1-7: allopurinol 300 mg qd • Days 8-14: drug 1 400 mg qd+allopurinol 300 mg qd • Days 15-21: drug 1 400 mg qd
• Day −10 to Day 28: colchicine prophylaxis; or • Day −7 to Day 28: colchicine prophylaxis (for patients not washing out from ULT) • Days 1-7: allopurinol 300 mg qd • Days 8-14: drug 1 600 mg qd+allopurinol 300 mg qd • Days 15-21: drug 1 600 mg qd
Gout patients on a urate lowering therapy (ULT), have previously taken a ULT or who have never taken a ULT are eligible to participate. Screening procedures to determine patient eligibility are performed within approximately 14 days of the first dose of study drug (Day 1). Subjects currently on ULT wash-out for at least 10 days before Day 1, and begin colchicine (Colcry® 0.6 mg qd, URL Pharma) as prophylaxis for gout flares at the beginning of the wash-out period. Subjects not on ULT begin colchicine administration at least 7 days prior to Day 1. Patients intolerant of colchicine during the screening period are considered screen failures and not enrolled. Prophylactic administration of colchicine continues for 7 days after the last dose of study medication.
Eligible patients report to the study center early morning on Days −1, 7, 14, and 21 (or the afternoon/evening the day before). Serial blood samples are collected on Days −1, 7, 14, and 21. Study medication is administered to each patient and taken orally every morning with approximately 240 mL of water, at approximately the same time of the morning every day, and approximately 30 minutes after finishing a full breakfast (approximately 650 Kcal and 35% fat); the breakfast is standardized on Days −1 to 21.
Inclusion Criteria • Patient is male or post-menopausal or surgically sterile female. • Patient is 18-80 years of age. • Patient meets one or more criteria for the diagnosis of gout as per the American Rheumatism Association (ARA) Criteria for the Classification of Acute Arthritis of Primary Gout (Appendix B). • Patient sUA≥8 mg/dL at screening. • Patient willing and able to give informed consent and adhere to visit/protocol schedules • No clinically relevant abnormalities in blood pressure (BP), heart rate (HR), body temperature and respiratory rate as per Investigator's judgment.
Subject urate serum levels are recorded, and any safety concerns assessed (by adverse events, clinical laboratory test results, vital signs, 12-lead ECGs, and physical examinations). […] Urate serum concentrations are evaluated for treatment- and/or time-dependent changes relative to baseline (Day −1), and may be expressed both in standard units (mg/dL) and as changes from baseline (e.g., percent change, absolute change, maximal change, and time or day of maximal change).
Drug 1 was tested according to the protocol described in Example 21.
Serum urate levels were measured and absolute and % reduction levels from baseline calculated, for Allopurinol monotherapy, Drug 1 monotherapy and Allopurinol plus Drug 1 combination.

[1] = Drug 1 400 mg panel: allopurinol 300 mg qd days 1-7, combination days 8-14, drug 1 400 mg qd alone days 15-21
[2] = Drug 1 600 mg panel: allopurinol 300 mg qd days 1-7, combination days 8-14, drug 1 600 mg qd alone days 15-21

O=C(O)CSc1nnc(Br)n1-c1ccc(C2CC2)c2ccccc12 [Drug 1, Sodium 2-(5-bromo-4-(4-cyclopropylnaphthalen-1-yl)-4H-1,2,4-triazol-3-ylthio)acetate]
Mean absolute sUA reduction [1]: -3.0 ± 0.46 mg/dL | Mean sUA % change [1]: −30.2 ± 3.7% | Mean sUA level [1]: 6.6 ± 0.22 mg/dL | % Response rate for sUA falling below 4 mg/dL (Drug 1 400 mg panel): 0% | % Response rate for sUA falling below 5 mg/dL (Drug 1 400 mg panel): 0% | % Response rate for sUA falling below 6 mg/dL (Drug 1 400 mg panel): 20% | Mean absolute sUA reduction [2]: -3.3 ± 0.23 mg/dL | Mean sUA % change [2]: −37.2 ± 2.6% | Mean sUA level [2]: 5.7 ± 0.41 mg/dL | % Response rate for sUA falling below 4 mg/dL (Drug 1 600 mg panel): 0% | % Response rate for sUA falling below 5 mg/dL (Drug 1 600 mg panel): 33% | % Response rate for sUA falling below 6 mg/dL (Drug 1 600 mg panel): 67%
